For data set [1], the system named is S. aureus Smith 4. The experiment in a line: In vitro antibacterial activity (MIC), S. aureus Smith 4. In kind it is cell-based. The note with it: Staphylococcus aureus. Here is the method: (§1) The in vitro antibacterial activity of the compound of the present invention against various experimental microorganism was measured using sensitive disc media (produced by Eiken Chemical Co.) according to the MIC measuring method specified by the Japan Chemotherpeutic Society. Comparative drug 1:3-deoxy-11-{2-[methyl(benzyl)amino]ethyl}amino-3-oxo-5-O-desosaminyl-6-O-methylerythronolide A 11-N,12-O-cyclic carbamate (described in EP patent No. 0487411), Comparative drug 2:3-deoxy-3-oxo-5-O-desosaminyl-6-O-methylerythronolide A 11,12-cyclic carbonate (described in EP patent No. 0487411), Comparative drug 3:6-O-methylerythromycin A and Comparative drug 4:azithromycin were used.

The test system of the next data set is H. influenzae ATCC19418. The experiment in a line: In vitro antibacterial activity (MIC), H. influenzae ATCC19418. The format is cell-based. To be noted: Haemophilus influenzae, sensitive disc media, read-out: MIC value (Minimum Inhibitory Concentration). The method, then:
as §1

The next data set relates to E. faecalis CSJ 1212. Briefly: In vitro antibacterial activity (MIC), E. faecalis CSJ 1212. In kind it is cell-based. To be noted: Enterococcus faecalis. Here is the method:
as §1

In a further data set the test system is S. aureus B1. The experiment in a line: In vitro antibacterial activity (MIC), S. aureus B1. In kind it is cell-based. The note with it: Staphylococcus aureus. The method, then:
as §1

The subject of data set [2] is S. aureus Smith 4. Briefly: In vivo antibacterial activity: protection effect against infection with S. aureus Smith 4 in mice. More on the design: species or system male ICR mice. The note with it: oral, 1 hour after inoculation, 7 days. Here is the method:
The injection protection effect of the compound of the present invention against infectious bacteria (S. aureus Smith 4) was studied using 8 male ICR mice, 4-week-old, for each group and using Comparative drugs 1, 2 and 3 (as described in Experiment 1). Infectious bacteria (S. aureus Smith 4) were incubated for 18 hours, and diluted with a saline solution containing 5% mucin and heart infusion agar, and 0.5 ml of which was inoculated intraperitoneally to mice. An hour after inoculation of bacteria, the drug suspended in 5% gum arabic was administered orally, followed by judgement of life and death during 7 days.

A further data set concerns S. aureus 209P-JC. Briefly: In vitro antibacterial activity (MIC), S. aureus 209P-JC. The format is cell-based. To be noted: Staphylococcus aureus, read-out: MIC value (Minimum Inhibitory Concentration). The method, then: as §1
Data set [3] is described as follows: Concentration in mouse serum after oral administration. The format is in vivo, male ICR mice. To be noted: dose not given; for AUC / Cmax: mouse serum; for concentration at 0.25 h / concentration at 0.5 h / concentration at 1 h / concentration at 2 h / concentration at 4 h / concentration at 6 h: mouse, serum; for concentration at 0.5 h: 0.50 hr. Here is the method:
Concentration of the compound of the present invention in mouse serum was determined by using 10 male ICR mice, 4-week-old, for each group and using Comparative drugs 2 and 3 (as described in Experiment 1). The drug suspended in 5% gum arabic was administered orally to mice, the blood was collected with lapse of time, and the serum was separated. Concentration of the drug in the serum was measured by using M. luteus ATCC 9341 as approved bacteria according to the papar-disc method.

Where [4] appears, read: SMITH4, S. aureus Smith 4, sensitive disc media, read-out: MIC value (Minimum Inhibitory Concentration).
[5] abbreviates: S. aureus B1, sensitive disc media, read-out: MIC value (Minimum Inhibitory Concentration).
Setting [6] is: CSJ1212, E. faecalis CSJ 1212, sensitive disc media, read-out: MIC value (Minimum Inhibitory Concentration).
The mark [7] stands for this setting: S. aureus 209P-JC, sensitive disc media.
[8] abbreviates: B1, read-out: MIC value (Minimum Inhibitory Concentration).

Results on five compounds are retold here after patent US5591837A, “5-O-desosaminylerythronolide a derivative” (Taisho Pharmaceutical Co., Ltd., priority 1992, dated 1997).

≈ marks a conversion by molar mass, not a printed value. Like-named read-outs stand apart in the source and are kept apart here.

Turning to `CC[C@H]1OC(=O)[C@H](C)C(=O)[C@H](C)[C@@H](O[C@@H]2O[C@H](C)C[C@H](N(C)C)[C@H]2O)[C@](C)(OC)C[C@@H](C)C(=O)[C@H](C)[C@H]2N(CCN(C)Cc3ccccc3)C(=O)O[C@]12C` [Comparative drug 1, 3-deoxy-11-{2-[methyl(benzyl)amino]ethyl}amino-3-oxo-5-O-desosaminyl-6-O-methylerythronolide A 11-N,12-O-cyclic carbamate], the MIC with S. aureus Smith 4 [1] (setting [4]) turned out to be 0.1 µg/mL (≈ 0.132 µM); in the data set on H. influenzae ATCC19418 it was 6.25 µg/mL (≈ 8.22 µM); in the data set on E. faecalis CSJ 1212 (CSJ1212, read-out: MIC value (Minimum Inhibitory Concentration)), 0.1 µg/mL (≈ 0.132 µM); in the data set on S. aureus B1 (setting [5]), 0.39 µg/mL (≈ 0.513 µM); with S. aureus 209P-JC (209P), 0.1 µg/mL (≈ 0.132 µM). Besides, the “Number of Survival (n = 8)” value turned out to be 2 in the data set on S. aureus Smith 4 [2] (0.1 mg/mouse), 2 in the data set on S. aureus Smith 4 [2] (0.4 mg/mouse) and 7 in the data set on S. aureus Smith 4 [2] (1.6 mg/mouse).
In general, AUC refers to the area under the concentration-time curve, a measure of exposure. A low value points to less exposure. A word on the Cmax: it is the peak of the concentration-time curve. `CC[C@H]1OC(=O)[C@H](C)C(=O)[C@H](C)[C@@H](O[C@@H]2O[C@H](C)C[C@H](N(C)C)[C@H]2O)[C@](C)(OC)C[C@@H](C)C(=O)[C@H](C)[C@H]2OC(=O)O[C@@]21C` [Comparative drug 2, 3-deoxy-3-oxo-5-O-desosaminyl-6-O-methylerythronolide A 11,12-cyclic carbonate]: in the data set with S. aureus Smith 4 [1] (setting [4]), the MIC is 0.1 µg/mL (≈ 0.163 µM). The MIC in the data set on H. influenzae ATCC19418 was determined as 25 µg/mL (≈ 40.7 µM). Besides, the MIC in the data set with E. faecalis CSJ 1212 (setting [6]) stood at 0.05 µg/mL (≈ 0.0815 µM). Also, the MIC in the data set with S. aureus B1 (setting [5]) amounted to 1.56 µg/mL (≈ 2.54 µM). The “Number of Survival (n = 8)” value in the data set with S. aureus Smith 4 [2] (0.1 mg/mouse) was 2. Moreover, the “Number of Survival (n = 8)” value in the data set on S. aureus Smith 4 [2] (0.4 mg/mouse) came to 8. In the data set with S. aureus Smith 4 [2] (1.6 mg/mouse), the “Number of Survival (n = 8)” value is 8. In data set [3] (6 hr), the “Concentration in mouse serum” value came to 0 ng/mL. In data set [3], the AUC came out at 1370 ng·h/mL, the Cmax amounted to 410 ng/mL, the concentration at 0.25 h came to 310 ng/mL and the concentration at 0.5 h came out at 410 ng/mL. In data set [3], the concentration at 1 h was found to be 270 ng/mL, the concentration at 2 h came to 280 ng/mL and the concentration at 4 h stood at 260 ng/mL. Besides, the MIC in the data set on S. aureus 209P-JC (setting [7]) was determined as 0.1 µg/mL (≈ 0.163 µM).
Regarding `CC[C@H]1OC(=O)[C@H](C)[C@@H](O[C@H]2C[C@@](C)(OC)[C@@H](O)[C@H](C)O2)[C@H](C)[C@@H](O[C@@H]2O[C@H](C)C[C@H](N(C)C)[C@H]2O)[C@](C)(OC)C[C@@H](C)C(=O)[C@H](C)[C@@H](O)[C@]1(C)O` [Comparative drug 3, 6-O-methylerythromycin A], the MIC with S. aureus Smith 4 [1] (setting [4]) came to 0.1 µg/mL (≈ 0.134 µM). The MIC in the data set with H. influenzae ATCC19418 was determined as 12.5 µg/mL (≈ 16.7 µM). The MIC in the data set on E. faecalis CSJ 1212 (setting [6]) was 3.13 µg/mL (≈ 4.18 µM). For the same compound, the MIC in the data set with S. aureus B1 (setting [8]) is > 100 µg/mL. In addition, the “Number of Survival (n = 8)” value with S. aureus Smith 4 [2] (0.1 mg/mouse) was found to be 3. Besides, in the data set with S. aureus Smith 4 [2] (0.4 mg/mouse), the “Number of Survival (n = 8)” value is given as 6. Moreover, the “Number of Survival (n = 8)” value with S. aureus Smith 4 [2] (1.6 mg/mouse) is given as 8. In data set [3], this compound registered an AUC of 880 ng·h/mL, a Cmax of 340 ng/mL, a concentration at 0.25 h of 290 ng/mL and a concentration at 0.5 h of 330 ng/mL. Also, in data set [3], the concentration at 1 h was found to be 340 ng/mL, the concentration at 2 h amounted to 110 ng/mL and the concentration at 4 h came out at 110 ng/mL. This compound also showed a concentration at 6 h in data set [3] (6 hr) of 40 ng/mL. Moreover, the MIC with S. aureus 209P-JC (setting [7]) worked out at 0.1 µg/mL (≈ 0.134 µM).
For the compound `CC[C@H]1OC(=O)[C@H](C)[C@@H](O[C@H]2C[C@@](C)(OC)[C@@H](O)[C@H](C)O2)[C@H](C)[C@@H](O[C@@H]2O[C@H](C)C[C@H](N(C)C)[C@H]2O)[C@](C)(O)C[C@@H](C)CN(C)[C@H](C)[C@@H](O)[C@]1(C)O` [Comparative drug 4, azithromycin], the MIC in the data set with S. aureus Smith 4 [1] (setting [4]) is 0.39 µg/mL (≈ 0.521 µM); in the data set on H. influenzae ATCC19418, 6.25 µg/mL (≈ 8.34 µM); in the data set on E. faecalis CSJ 1212 (setting [6]), 6.25 µg/mL (≈ 8.34 µM); in the data set on S. aureus B1 (setting [5]), > 100 µg/mL; with S. aureus 209P-JC (setting [7]) it was 20 µg/mL (≈ 26.7 µM).
Regarding `CC[C@H]1OC(=O)[C@H](C)C(=O)[C@H](C)[C@@H](O[C@@H]2O[C@H](C)C[C@H](N(C)C)[C@H]2O)[C@](C)(OC)C[C@@H](C)C(=O)[C@H](C)[C@H]2NC(=O)O[C@@]21C` [Compound 1, 11-amino-3,11-dideoxy-3-oxo-5-O-desosaminyl-6-O-methylerythronolide A 11-N,12-O-cyclic carbamate], the MIC in the data set with S. aureus Smith 4 [1] (SMITH4, read-out: MIC value (Minimum Inhibitory Concentration)) was 0.1 µg/mL (≈ 0.163 µM); with H. influenzae ATCC19418, 6.25 µg/mL (≈ 10.2 µM); in the data set on E. faecalis CSJ 1212 (setting [6]) it was 0.05 µg/mL (≈ 0.0816 µM); with S. aureus B1 (setting [8]), 0.2 µg/mL (≈ 0.326 µM); with S. aureus 209P-JC (209P) it was 0.05 µg/mL (≈ 0.0816 µM). Besides, the “Number of Survival (n = 8)” value in the data set with S. aureus Smith 4 [2] (0.1 mg/mouse), with S. aureus Smith 4 [2] (0.4 mg/mouse) and with S. aureus Smith 4 [2] (1.6 mg/mouse) was 8 each time. The AUC in data set [3] turned out to be 2900 ng·h/mL. Besides, the Cmax in data set [3] amounted to 1170 ng/mL. For the same compound, the concentration at 0.25 h in data set [3] was 230 ng/mL. Besides, the concentration at 0.5 h in data set [3] came to 1170 ng/mL. The same compound yielded a concentration at 1 h in data set [3] of 770 ng/mL. In data set [3], this compound returned a concentration at 2 h of 600 ng/mL. This compound had a concentration at 4 h in data set [3] of 440 ng/mL. Moreover, the concentration at 6 h in data set [3] (6 hr) is 50 ng/mL.
